The record followed here is US11273217B2, “Cancer treatment composition combining anti-CD26 antibody and other anticancer agent” (Y's AC Co., Ltd., priority 2015, dated 2022).

Assay [1] has as its system JMN cells. The experiment in a line: In vivo JMN cell growth in SCID mice (tumor weight). As to conditions: YS110 10 mg/kg, gemcitabine 10 mg/kg, intraperitoneal, days 2 and 4; day 7.
The subject of a further assay is H226. The experiment in a line: In vivo growth of epithelioid mesothelioma cell H226 in SCID mice (tumor weight). As to conditions: YS110 10 mg/kg, gemcitabine 20 mg/kg, intraperitoneal, days 2 and 4; day 7. Here is the method:
H226 (3.8×10^5 cells/animal) was subcutaneously transplanted to the backs of female SCID mice. The day of transplantation was defined as day 0. YS110 (10 mg/kg), gemcitabine (20 mg/kg), or YS110 (10 mg/kg)+gemcitabine (20 mg/kg) was intraperitoneally administered to the mice twice (days 2 and 4) (n=6). At day 7, their tumors were excised, and the tumor weights were measured. Significant difference was tested by two-tailed t-test (vs Cont). The interaction between YS110 and gemcitabine used concomitantly was analyzed by two-way ANOVA.

The test system of assay [2] is JMN cells. The experiment in a line: MTT cell growth assay, JMN. Format: cell-based. The procedure: (§1) Gemcitabine was studied for its effect on the growth of a mesothelioma cell line. A mesothelioma cell line MESO1, JMN, H2452, or H226 (2×10^3 cells/well) was inoculated to a 96-well plate. One hour later, gemcitabine (10^−9, 10^−8, 10^−7, 10^−6, 10^−5, or 10^−4 M) was added thereto (N=6). 2 days later, MTT assay was conducted. Significant difference was tested by two-tailed t-test (vs Cont).
JMN cells (2×10^3 cells/well) were inoculated to a 96-well plate. One hour later, gemcitabine (0, 3×10^−10, 10^−9, or 3×10^−8 M) and YS110 (0, 1, 3, or 10 μg/ml) were added thereto in combination. At day 2, MTT assay was conducted. Significant difference was tested by two-tailed t-test (vs Cont). Next, interaction in concomitant use of medications was studied (n=6). The interaction between YS110 and gemcitabine used concomitantly was analyzed by two-way ANOVA.
(§2) MESO1, JMN, H2452 or H226 cells (2×10^3 cells/well were inoculated to a 96-well plate. One hour later, 3×10^−8 M or 10^−7 M gemcitabine was added thereto by concomitant use with the combination of cisplatin (0, 0.1, 0.3, or 1 μM) and pemetrexed (0, 0.03, 0.1, or 0.3 μM) (n=6). At day 2, MTT assay was conducted.
(§3) The growth inhibitory effects of cisplatin (10^−9 to 10^−4 M) and pemetrexed (10^−9 to 10^−4 M) were compared using the MESO1 and JMN cell lines.
(§4) The growth inhibitory effect of gemcitabine (10^−9 to 10^−4 M) was compared using MESO1, H2452, JMN, and H226 cell lines.
For orientation: Tetrazolium dyes change colour on reduction, which living cells bring about.

For a further assay, the system named is MESO1 cells. The experiment in a line: MTT cell growth assay, MESO1. Format: cell-based. As to conditions: 3×10^−8 M or 10^−7 M gemcitabine with cisplatin 0-1 μM and pemetrexed 0-0.3 μM; day 2. The procedure:
(§5) MESO1 or H2452 cells (2×10^3 cells/well) were inoculated to a 96-well plate. One hour later, cisplatin or pemetrexed was added thereto at 10^−9, 10^−8, 10^−7, 10^−6, 10^−5, or 10^−4 M (n=6). At day 2, MTT assay was conducted.
MESO1 cells (2×10^3 cells/well) were inoculated to a 96-well plate. One hour later, the combination of 0.3, 3, or 10 μM cisplatin and 0.1, 3, or 10 μg/ml YS110, or the combination of 0.03, 0.3, or 1 μM pemetrexed and 0.1, 3, or 10 μg/ml YS110 was added thereto. At day 2, MTT assay was conducted. Significant difference was tested by two-tailed t-test (vs Cont).
(§6) MESO1 cells (2×10^3 cells/well) or H2452 cells (2×10^3 cells/well) were inoculated to a 96-well plate. One hour later, 0.3 μM cisplatin-0.1 μM pemetrexed combination, or YS110 (10 μg/ml) plus the 0.3 μM cisplatin-0.1 μM pemetrexed combination was added thereto (n=6). At day 2, MTT assay was conducted. Significant difference was tested by two-tailed t-test (vs Cont).
as §1
MESO1 cells (2×10^3 cells/well) were inoculated to a 96-well plate. One hour later, gemcitabine (0, 10^−8, 3×10^−8, or 10^−7 M) and YS110 (0, 1, 3, or 10 μg/ml) were added thereto in combination. At day 2, MTT assay was conducted. Significant difference was tested by two-tailed t-test (vs Cont). Next, interaction in concomitant use of medications was studied (n=6). The interaction between YS110 and gemcitabine used concomitantly was analyzed by two-way ANOVA.
as §2, §3, §4

Another assay deals with H2452 cells. The experiment in a line: MTT cell growth assay, H2452. Type of assay: cell-based. To be noted: 3×10^−8 M or 10^−7 M gemcitabine with cisplatin 0-1 μM and pemetrexed 0-0.3 μM; day 2. The procedure:
as §5
H2452 cells (2×10^3 cells/well) were inoculated to a 96-well plate. One hour later, the combination of 0.03, 0.3, or 1 μM cisplatin and 0.1, 3, or 10 μg/ml YS110, or the combination of 0.01, 0.1, or 0.3 μM pemetrexed and 0.1, 3, or 10 μg/ml YS110 was added thereto (n=6). At day 2, MTT assay was conducted. Significant difference was tested by two-tailed t-test (vs Cont).
as §6, §1
H2452 cells (2×10^3 cells/well) were inoculated to a 96-well plate. One hour later, gemcitabine (0, 10^−8, 3×10^−8, or 10^−7 M) and YS110 (0, 1, 3, or 10 μg/ml) were added thereto in combination. At day 2, MTT assay was conducted. Significant difference was tested by two-tailed t-test (vs Cont). Next, interaction in concomitant use of medications was studied (n=6). The interaction between YS110 and gemcitabine used concomitantly was analyzed by two-way ANOVA.
as §2, §4

Another assay concerns H226 cells. The experiment in a line: MTT cell growth assay, H226. Type of assay: cell-based. The procedure: as §1
H226 cells (2×10^3 cells/well) were inoculated to a 96-well plate. One hour later, gemcitabine (0, 10^−8, 3×10^−8, or 10^−7 M) and YS110 (0, 1, 3, or 10 μg/ml) were added thereto in combination. At day 2, MTT assay was conducted. Significant difference was tested by two-tailed t-test (vs Cont). Next, interaction in concomitant use of medications was studied (n=6). The interaction between YS110 and gemcitabine used concomitantly was analyzed by two-way ANOVA.
as §2, §4

Where [3] appears, read: 3×10^−8 M or 10^−7 M gemcitabine with cisplatin 0-1 μM and pemetrexed 0-0.3 μM, day 2.

Consider `Nc1ccn([C@@H]2O[C@H](CO)[C@@H](O)C2(F)F)c(=O)n1` [gemcitabine], for which the “inhibitory effect (tumor weight)” value in the assay on JMN cells [1] and with H226 was 29% throughout. For the same compound, the “effect of gemcitabine on the growth inhibitory action of cisplatin-pemetrexed” value in the assay with JMN cells [2] (setting [3]), with MESO1 cells, with H2452 cells and in the assay on H226 cells (setting [3]) was “did not potentiate” throughout. The “cell growth, gemcitabine dose-response compared among mesothelioma cell lines (in words)” value in the assay on JMN cells [2] (10^−9 to 10^−4 M, 2 days) is given as “more strongly suppressed the growth”; in the assay with H226 cells (10^−9 to 10^−4 M, 2 days), “more strongly suppressed the growth”. For the same compound, the “growth inhibitory effect compared between MESO1 and JMN” value in the assay with JMN cells [2] (MESO1 (CD9+) vs JMN (CD9−), 10^−9 to 10^−4 M) is recorded as “significantly stronger growth inhibitory effect on JMN than on MESO1”. Besides, the “growth inhibitory effect compared between H2452 and H226” value in the assay with H226 cells (H2452 (CD9+) vs H226 (CD9−), 10^−9 to 10^−4 M) is recorded as “significantly stronger growth inhibitory effect on H226 than on H2452”.
